Results on 29 molecules are retold here after patent publication US9387204B2, “Fused bicyclic imidazoles” (BAYER INTELLECTUAL PROPERTY GmbH, priority 2007, dated 2016).

Molecules are shown by their SMILES.

In the first data set the test system is A549 cells. Briefly: Cellular proliferation/cytotoxicity assay (Alamar Blue), A549 cells. Conditions: Homo sapiens, A549, 72 h, read-out: Anti-proliferative/Cytotoxic activity (A549 cells). (The colour change of resazurin is a common sign of viable cells or microbes.)
Method: The anti-proliferative activity of the compounds as described herein, is evaluated using the OvCAR3, HCT116 and A549 cell lines and the Alamar Blue (Resazurin) cell viability assay (O'Brien et al. Eur J Biochem 267, 5421-5426, 2000). Resazurin is reduced to the fluorescent resorufin by cellular dehydrogenase activity, correlating with viable, proliferating cells. Test compounds are dissolved as 10 mM solutions in DMSO and subsequently diluted. Cells like HCT116 or A549 cells were seeded into 96 well flat bottom plates at a density of 10000 cells/well (OvCAR3 cells), 1000 cells/well (HCT116 cells) or 2000 cells/well (A549 cells) in a volume of 200 μl/well. 24 hours after seeding, 1 μl each of the compound dilutions are added into each well of the 96 well plates. Each compound dilution is tested as at least as duplicates. Wells containing untreated control cells were filled with 200 μl DMEM (Dulbecco's Modified Eagle Medium) containing 0.5 vol % v:v DMSO. The cells are then incubated with the substances for 72 h at 37° C. in a humidified atmosphere containing 5 vol % CO2. To determine the viability of the cells, 20 μl of a Resazurin solution (90 mg/l) are added. After 4 h incubation at 37° C., the fluorescence is measured by extinction at ? =544 nm and an emission of ? =590 nm (Wallac Victor2; Perkin Elmer, USA). For the calculation of the cell viability, the emission value from untreated cells is set as 100% viability and the fluorescence intensity of treated cells are set in relation to the values of untreated cells. Viabilities are expressed as % values. The corresponding IC50 values of the compounds for cytotoxic activity are determined from the concentration-effect curves by means of non-linear regression. The analysis of the data is performed using a biostatistical program (Graph Pad Prism, USA).
For the molecule `c1ccc(-c2c(-c3ccc(CN4CCC(c5n[nH]c(-c6ccccn6)n5)CC4)cc3)nc3sccn23)cc1` [Example 10, 5-phenyl-6-(4-{[4-(5-pyridin-2-yl-1,2,4-triazol-3-yl)piperidin-1-yl]methyl}phenyl)imidazo[2,1-b][1,3]thiazole], the IC50 is under 10 µM.
Same read-out and setting: in the case of `Cc1cccc(-c2nnc(C3CCN(Cc4ccc(-c5nc6ccccn6c5-c5ccccc5)cc4)CC3)[nH]2)n1` [Example 64, 2-[4-({4-[5-(6-methylpyridin-2-yl)-4H-1,2,4-triazol-3-yl]piperidin-1-yl}methyl)phenyl]-3-phenylimidazo[1,2-a]pyridine] it was under 10 µM; in that of `Cc1cccn2c(-c3ccccc3)c(-c3ccc(CN4CCC(c5n[nH]c(-c6ccccn6)n5)CC4)cc3)nc12` [Example 8, 8-methyl-3-phenyl-2-(4-{[4-(5-pyridin-2-yl-1,2,4-triazol-3-yl)piperidin-1-yl]methyl}phenyl)imidazo[1,2-a]pyridine], under 10 µM; in that of `Fc1ccc(-c2c(-c3ccc(CN4CCC(c5n[nH]c(-c6ccccn6)n5)CC4)cc3)nc3ncccn23)cc1` [Example 18, 3-(4-fluorophenyl)-2-(4-{[4-(5-pyridin-2-yl-1,2,4-triazol-3-yl)piperidin-1-yl]methyl}phenyl)imidazo[1,2-a]pyrimidine], over 10 µM.
Same read-out and setting: in the case of `COc1cccn2c(-c3ccccc3)c(-c3ccc(CN4CCC(c5n[nH]c(-c6ccccn6)n5)CC4)cc3)nc12` [Example 13, 8-methoxy-3-phenyl-2-(4-{[4-(5-pyridin-2-yl-1,2,4-triazol-3-yl)piperidin-1-yl]methyl}phenyl)imidazo[1,2-a]pyridine] it was under 10 µM; in that of `N#Cc1ccn2c(-c3ccccc3)c(-c3ccc(CN4CCC(c5nnc(-c6ncccn6)[nH]5)CC4)cc3)nc2c1` [Example 78, 3-phenyl-2-[4-({4-[5-(pyrimidin-2-yl)-4H-1,2,4-triazol-3-yl]piperidin-1-yl}methyl)phenyl]imidazo[1,2-a]pyridine-7-carbonitrile], under 10 µM; in that of `Ic1cnc2nc(-c3ccc(CN4CCC(c5n[nH]c(-c6ccccn6)n5)CC4)cc3)c(-c3ccccc3)n2c1` [Example 23, 6-iodo-3-phenyl-2-(4-{[4-(5-pyridin-2-yl-1,2,4-triazol-3-yl)piperidin-1-yl]methyl}phenyl)imidazo[1,2-a]pyrimidine], over 10 µM.
In the case of `O=C(O)c1ccn2c(-c3ccccc3)c(-c3ccc(CN4CCC(c5nnc(-c6ccccn6)[nH]5)CC4)cc3)nc2c1` [Example 125, 3-phenyl-2-[4-({4-[5-(pyridin-2-yl)-4H-1,2,4-triazol-3-yl]piperidin-1-yl}methyl)phenyl]imidazo[1,2-a]pyridine-7-carboxylic acid], the IC50 is over 10 µM.
On to `COc1ccc2nc(-c3ccc(CN4CCC(c5n[nH]c(-c6ccccn6)n5)CC4)cc3)c(-c3ccccc3)n2n1` [Example 32, 6-methoxy-3-phenyl-2-(4-{[4-(5-pyridin-2-yl-1,2,4-triazol-3-yl)piperidin-1-yl]methyl}phenyl)imidazo[1,2-b]pyridazine], for which the IC50 was under 10 µM.
`FC(F)(F)c1ccn2c(-c3ccccc3)c(-c3ccc(CN4CCC(c5n[nH]c(-c6ccccn6)n5)CC4)cc3)nc2n1` [Example 28, 3-phenyl-2-(4-{[4-(5-pyridin-2-yl-1,2,4-triazol-3-yl)piperidin-1-yl]methyl}phenyl)-7-(trifluoromethyl)imidazo[1,2-a]pyrimidine]: the IC50 was over 10 µM.
On to `c1ccc(-c2c(-c3ccc(CN4CCC(c5n[nH]c(-c6ccccn6)n5)CC4)cc3)nc3scnn23)cc1` [Example 11, 5-phenyl-6-(4-{[4-(5-pyridin-2-yl-1,2,4-triazol-3-yl)piperidin-1-yl]methyl}phenyl)imidazo[2,1-b][1,3,4]thiadiazole], for which the IC50 is under 10 µM.
On to `Clc1ccc2nc(-c3ccc(CN4CCC(c5nnc(-c6ccccn6)[nH]5)CC4)cc3)c(-c3ccccc3)n2c1` [Example 7, 6-chloro-3-phenyl-2-(4-{[4-(5-pyridin-2-yl-4H-1,2,4-triazol-3-yl)piperidin-1-yl]methyl}phenyl)imidazo[1,2-a]pyridine], for which the IC50 was under 10 µM.
For the molecule `Brc1cnc2nc(-c3ccc(CN4CCC(c5n[nH]c(-c6ccccn6)n5)CC4)cc3)c(-c3ccccc3)n2c1` [Example 12, 6-bromo-3-phenyl-2-(4-{[4-(5-pyridin-2-yl-1,2,4-triazol-3-yl)piperidin-1-yl]methyl}phenyl)imidazo[1,2-a]pyrimidine], the IC50 is under 10 µM.
On to `Clc1nccn2c(-c3ccccc3)c(-c3ccc(CN4CCC(c5n[nH]c(-c6ccccn6)n5)CC4)cc3)nc12` [Example 26, 8-chloro-3-phenyl-2-(4-{[4-(5-pyridin-2-yl-1,2,4-triazol-3-yl)piperidin-1-yl]methyl}phenyl)imidazo[1,2-a]pyrazine], for which the IC50 was over 10 µM.

Staying with this data set, now noted: read-out: Anti-proliferative/Cytotoxic activity (A549 cells); A549 cells, 72 h, Alamar Blue (Resazurin).
For the molecule `c1ccc(-c2c(-c3ccc(CN4CCC(c5nnc(-c6ncccn6)[nH]5)CC4)cc3)nc3sccn23)cc1` [Example 81, ′5-phenyl-6-(4-{[4-(5-pyrimidin-2-yl-4H-1,2,4-triazol-3-yl)piperidin-1-yl]methyl}phenyl)imidazo[2,1-b][1,3]thiazole], the IC50 is over 10 µM.
With `c1ccc(-c2c(-c3ccc(CN4CCC(c5nnc(-c6cccs6)[nH]5)CC4)cc3)nc3ccccn23)cc1` [Example 97, ′3-phenyl-2-[4-({4-[5-(2-thienyl)-4H-1,2,4-triazol-3-yl]piperidin-1-yl}methyl)phenyl]imidazo[1,2-a]pyridine], the IC50 is under 10 µM.
Regarding `N#Cc1ccn2c(-c3ccccc3)c(-c3ccc(CN4CCC(c5nnc(-c6ccccn6)[nH]5)CC4)cc3)nc2c1` [Example 114, ′3-phenyl-2-(4-{[4-(5-pyridin-2-yl-4H-1,2,4-triazol-3-yl)piperidin-1-yl]methyl}phenyl)imidazo[1,2-a]pyridine-7-carbonitrile], the IC50 was under 10 µM.
With `c1ccc(-c2c(-c3ccc(CN4CCC(c5nnc(-c6nccs6)[nH]5)CC4)cc3)nc3sccn23)cc1` [Example 87, ′5-phenyl-6-[4-({4-[5-(1,3-thiazol-2-yl)-4H-1,2,4-triazol-3-yl]piperidin-1-yl}methyl)phenyl]imidazo[2,1-b][1,3]thiazole], the IC50 was under 10 µM.
Regarding `N#Cc1cccn2c(-c3ccccc3)c(-c3ccc(CN4CCC(c5n[nH]c(-c6ccc(Cl)cn6)n5)CC4)cc3)nc12` [Example 75, ′2-[4-({4-[5-(5-chloropyridin-2-yl)-1H-1,2,4-triazol-3-yl]piperidin-1-yl}methyl)phenyl]-3-phenylimidazo[1,2-a]pyridine-8-carbonitrile], the IC50 was over 10 µM.
Regarding `N#Cc1ccn2c(-c3ccccc3)c(-c3ccc(CN4CCC(c5nc(-c6ccncc6)n[nH]5)CC4)cc3)nc2c1` [Example 57, ′3-phenyl-2-(4-{[4-(3-pyridin-4-yl-1H-1,2,4-triazol-5-yl)piperidin-1-yl]methyl}phenyl)imidazo[1,2-a]pyridine-7-carbonitrile], the IC50 was under 10 µM.
Turning to `c1ccc(-c2c(-c3ccc(CN4CCC(c5nnc(-c6cccs6)[nH]5)CC4)cc3)nc3scnn23)cc1` [Example 101, ′5-phenyl-6-[4-({4-[5-(2-thienyl)-4H-1,2,4-triazol-3-yl]piperidin-1-yl}methyl)phenyl]imidazo[2,1-b][1,3,4]thiadiazole], the IC50 is under 10 µM.
Turning to `c1ccc(-c2c(-c3ccc(CN4CCC(c5nnc(-c6ccc[nH]6)[nH]5)CC4)cc3)nc3sccn23)cc1` [Example 109, ′5-phenyl-6-[4-({4-[5-(1H-pyrrol-2-yl)-4H-1,2,4-triazol-3-yl]piperidin-1-yl}methyl)phenyl]imidazo[2,1-b][1,3]thiazole], the IC50 was under 10 µM.
Turning to `c1ccc(-c2c(-c3ccc(CN4CCC(c5noc(-c6ccccn6)n5)CC4)cc3)nc3ncccn23)cc1` [Example 116, ′3-phenyl-2-(4-{[4-(5-pyridin-2-yl-1,2,4-oxadiazol-3-yl)piperidin-1-yl]methyl}phenyl)imidazo[1,2-a]pyrimidine], the IC50 is under 10 µM.
Take `c1ccc(-c2c(-c3ccc(CN4CCC(c5nnc(-c6ncccn6)[nH]5)CC4)cc3)nc3scnn23)cc1` [Example 82, ′5-phenyl-6-(4-{[4-(5-pyrimidin-2-yl-4H-1,2,4-triazol-3-yl)piperidin-1-yl]methyl}phenyl)imidazo[2,1-b][1,3,4]thiadiazole]: the IC50 is under 10 µM.
With `c1ccc(-c2c(-c3ccc(CN4CCC(c5cc(-c6ccccn6)[nH]n5)CC4)cc3)nc3sccn23)cc1` [Example 113, ′5-phenyl-6-(4-{[4-(5-pyridin-2-yl-1H-pyrazol-3-yl)piperidin-1-yl]methyl}phenyl)imidazo[2,1-b][1,3]thiazole], the IC50 was under 10 µM.
With `Cc1ccc(-c2nnc(C3CCN(Cc4ccc(-c5nc6scnn6c5-c5ccccc5)cc4)CC3)[nH]2)nc1` [Example 74, ′6-[4-({4-[5-(5-methylpyridin-2-yl)-4H-1,2,4-triazol-3-yl]piperidin-1-yl}methyl)phenyl]-5-phenylimidazo[2,1-b][1,3,4]thiadiazole], the IC50 is under 10 µM.
With `c1ccc(-c2c(-c3ccc(CN4CCC(c5nnc(-c6ccncc6)[nH]5)CC4)cc3)nc3scnn23)cc1` [Example 60, ′5-phenyl-6-(4-{[4-(5-pyridin-4-yl-4H-1,2,4-triazol-3-yl)piperidin-1-yl]methyl}phenyl)imidazo[2,1-b][1,3,4]thiadiazole], the IC50 is under 10 µM.
For the molecule `Cc1ccc(-c2nnc(C3CCN(Cc4ccc(-c5nc6ncccn6c5-c5ccccc5)cc4)CC3)[nH]2)nc1` [Example 70, ′2-[4-({4-[5-(5-methylpyridin-2-yl)-4H-1,2,4-triazol-3-yl]piperidin-1-yl}methyl)phenyl]-3-phenylimidazo[1,2-a]pyrimidine], the IC50 was under 10 µM.
As to `c1ccc(-c2c(-c3ccc(CN4CCC(c5nnc(-c6nccs6)[nH]5)CC4)cc3)nc3ccccn23)cc1` [Example 85, ′3-phenyl-2-[4-({4-[5-(1,3-thiazol-2-yl)-4H-1,2,4-triazol-3-yl]piperidin-1-yl}methyl)phenyl]imidazo[1,2-a]pyridine], the IC50 is over 10 µM.
